From publication PMC9036627, “Global update on the susceptibility of human influenza viruses to neuraminidase inhibitors, 2013–2014” (Antiviral research, 2015)

Assays:
[1] = test system: neuraminidase (NA) of B/Yamagata-lineage viruses; format: biochemical, influenza B/Yamagata-lineage virus; settings: for IC50 fold-change compared to reference median IC50 values: B/Yamagata-lineage, no NA amino acid substitution (None), n=3, range
[2] = test system: neuraminidase (NA) of B/Victoria-lineage viruses; format: biochemical, influenza B/Victoria-lineage virus; settings: B/Victoria-lineage, no NA amino acid substitution (None); n=3; range
[3] = test system: neuraminidase (NA) of B/Yamagata-lineage viruses; set-up: method as in Oakley et al., 2010; settings: B/Yamagata-lineage virus, observed before, ref Oakley et al., 2010; cited from earlier work

SMILES | IC50 fold-change compared to reference median IC50 values [1] | IC50 fold-change compared to reference median IC50 values [2] | inhibition category conferred by NA D197N [3] | Included in phenotypic analysis: inhibition category (HRI/RI/NI) [1]
CCC(CC)[C@H](NC(C)=O)[C@@H]1[C@H](O)[C@@H](C(=O)O)C[C@H]1N=C(N)N [Peramivir, peramivir] | 2.0–7.8 fold | 0.9–6.5 fold | RI (RI 5 to 50-fold) | 
[H]/N=C(\N)N[C@H]1C=C(C(=O)O)O[C@@H]([C@H](OC)[C@H](O)CO)[C@@H]1NC(C)=O [Laninamivir, laninamivir] | 0.6–5.1 fold | 0.7–4.7 fold |  | Yes (RI to zanamivir, oseltamivir, peramivir and laninamivir) (key: NI < 5-fold; RI 5 to 50-fold; HRI > 50-fold)
CCOC(=O)C1=C[C@@H](OC(CC)CC)[C@H](NC(C)=O)[C@@H](N)C1 [Oseltamivir, oseltamivir] | 1.7–10 fold | 0.6–4.1 fold |  | 
CC(=O)N[C@H]1[C@H]([C@H](O)[C@H](O)CO)OC(C(=O)O)=C[C@@H]1N=C(N)N [Zanamivir, zanamivir] | 0.9–5.3 fold | 0.7–8.7 fold | RI (RI 5 to 50-fold) | Yes (RI to zanamivir, oseltamivir, peramivir and laninamivir) (key: NI < 5-fold; RI 5 to 50-fold; HRI > 50-fold)
